ChEMBL document CHEMBL5465560, “Selectivity Literature for EUbOPEN Chemogenomic Library” (2024)
One block for each compound: values may come before it.

Columns and labels:
[1] = target: T1, 3-phosphoinositide-dependent protein kinase 1 (Homo sapiens) (UniProt O15530); assay: Selectivity interaction (KinomeScan (DiscoverX)) EUB0000607a PDPK1; details: at 10 µM
T1 sequence (whole entry): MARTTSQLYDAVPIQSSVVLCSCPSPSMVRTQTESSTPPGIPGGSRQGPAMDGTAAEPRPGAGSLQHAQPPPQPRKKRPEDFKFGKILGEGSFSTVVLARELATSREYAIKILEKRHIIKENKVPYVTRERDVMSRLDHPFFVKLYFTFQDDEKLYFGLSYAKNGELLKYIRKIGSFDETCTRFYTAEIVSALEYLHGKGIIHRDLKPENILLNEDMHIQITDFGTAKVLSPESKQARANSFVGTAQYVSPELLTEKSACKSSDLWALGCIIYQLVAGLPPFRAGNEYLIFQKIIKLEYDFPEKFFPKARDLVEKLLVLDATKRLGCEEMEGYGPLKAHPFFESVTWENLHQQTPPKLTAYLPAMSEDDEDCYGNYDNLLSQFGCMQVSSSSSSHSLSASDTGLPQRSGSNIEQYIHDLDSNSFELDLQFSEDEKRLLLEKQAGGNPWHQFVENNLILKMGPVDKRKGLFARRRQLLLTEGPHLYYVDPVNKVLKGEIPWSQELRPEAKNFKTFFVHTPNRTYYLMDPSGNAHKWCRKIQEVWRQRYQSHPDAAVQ

[2] = target: T2, SNF-related serine/threonine-protein kinase (Homo sapiens) (UniProt Q9NRH2); assay: Selectivity interaction (ActivX KiNativ screen (kinase selectivity in THP-1 cell lysates)) EUB0000639a SNRK; assay type: subcellular; details: lysate, at 5 µM
T2 sequence (whole entry): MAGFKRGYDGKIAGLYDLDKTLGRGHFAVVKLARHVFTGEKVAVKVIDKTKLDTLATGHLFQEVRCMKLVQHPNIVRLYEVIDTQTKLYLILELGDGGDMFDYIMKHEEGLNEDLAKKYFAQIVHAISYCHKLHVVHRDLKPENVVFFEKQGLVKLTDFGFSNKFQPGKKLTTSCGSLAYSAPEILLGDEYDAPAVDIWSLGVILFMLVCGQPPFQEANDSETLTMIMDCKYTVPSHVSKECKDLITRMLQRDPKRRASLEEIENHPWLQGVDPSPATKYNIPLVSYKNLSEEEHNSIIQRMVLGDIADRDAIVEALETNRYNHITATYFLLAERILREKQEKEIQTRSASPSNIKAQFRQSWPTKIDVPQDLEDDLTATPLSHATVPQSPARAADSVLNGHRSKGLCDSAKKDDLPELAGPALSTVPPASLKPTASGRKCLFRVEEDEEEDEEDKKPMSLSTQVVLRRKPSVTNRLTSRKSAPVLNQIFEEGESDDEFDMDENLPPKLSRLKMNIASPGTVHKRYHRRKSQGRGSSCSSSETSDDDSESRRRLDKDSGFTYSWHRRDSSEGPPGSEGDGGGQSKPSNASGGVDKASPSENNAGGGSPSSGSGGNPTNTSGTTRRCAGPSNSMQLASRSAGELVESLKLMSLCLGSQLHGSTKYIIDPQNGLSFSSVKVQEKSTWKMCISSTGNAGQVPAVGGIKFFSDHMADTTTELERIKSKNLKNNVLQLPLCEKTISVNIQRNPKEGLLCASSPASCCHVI

[3] = target: Tyrosine-protein kinase JAK1 (Homo sapiens, UniProt P23458); assay: Selectivity interaction (KinomeScan (DiscoverX)) EUB0000695a JAK1; details: at 100 nM
Sequence of Tyrosine-protein kinase JAK1 (P23458 whole entry): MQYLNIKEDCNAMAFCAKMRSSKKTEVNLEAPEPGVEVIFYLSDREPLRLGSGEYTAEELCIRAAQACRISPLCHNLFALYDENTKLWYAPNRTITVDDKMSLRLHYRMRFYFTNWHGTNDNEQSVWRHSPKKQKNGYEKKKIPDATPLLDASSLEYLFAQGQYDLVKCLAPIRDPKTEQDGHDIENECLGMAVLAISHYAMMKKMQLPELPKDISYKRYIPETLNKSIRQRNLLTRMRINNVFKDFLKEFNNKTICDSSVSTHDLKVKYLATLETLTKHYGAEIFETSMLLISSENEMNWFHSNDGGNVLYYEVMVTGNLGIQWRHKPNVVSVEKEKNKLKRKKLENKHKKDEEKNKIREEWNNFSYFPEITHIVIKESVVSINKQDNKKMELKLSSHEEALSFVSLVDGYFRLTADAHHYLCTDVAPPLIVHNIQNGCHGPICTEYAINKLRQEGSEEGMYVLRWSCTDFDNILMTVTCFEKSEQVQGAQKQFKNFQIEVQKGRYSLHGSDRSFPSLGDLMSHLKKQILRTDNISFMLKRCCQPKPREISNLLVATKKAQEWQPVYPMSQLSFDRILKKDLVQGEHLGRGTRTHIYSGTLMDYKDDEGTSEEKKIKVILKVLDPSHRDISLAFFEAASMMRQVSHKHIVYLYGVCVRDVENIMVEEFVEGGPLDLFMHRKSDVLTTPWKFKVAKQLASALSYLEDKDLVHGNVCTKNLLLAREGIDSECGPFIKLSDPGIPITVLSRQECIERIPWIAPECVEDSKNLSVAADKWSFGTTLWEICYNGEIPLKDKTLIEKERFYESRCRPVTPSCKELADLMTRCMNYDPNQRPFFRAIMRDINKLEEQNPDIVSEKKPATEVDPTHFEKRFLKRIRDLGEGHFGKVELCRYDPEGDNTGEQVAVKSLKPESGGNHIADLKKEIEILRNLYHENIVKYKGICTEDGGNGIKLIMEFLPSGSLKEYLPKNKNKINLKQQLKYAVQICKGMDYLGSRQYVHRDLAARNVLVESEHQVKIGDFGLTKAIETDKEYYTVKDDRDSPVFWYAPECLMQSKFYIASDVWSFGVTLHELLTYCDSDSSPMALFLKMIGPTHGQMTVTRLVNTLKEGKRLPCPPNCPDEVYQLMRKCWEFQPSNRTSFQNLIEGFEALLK

[4] = target: Receptor-type tyrosine-protein kinase FLT3 (Homo sapiens) (UniProt P36888); assay: Selectivity interaction (Ambit KINOMEscan and KiNATiv profiling in Jurkat cells) EUB0000090b FLT3; assay type: cell-based; details: at 1 µM
Sequence of Receptor-type tyrosine-protein kinase FLT3 (Homo sapiens) (P36888 whole entry): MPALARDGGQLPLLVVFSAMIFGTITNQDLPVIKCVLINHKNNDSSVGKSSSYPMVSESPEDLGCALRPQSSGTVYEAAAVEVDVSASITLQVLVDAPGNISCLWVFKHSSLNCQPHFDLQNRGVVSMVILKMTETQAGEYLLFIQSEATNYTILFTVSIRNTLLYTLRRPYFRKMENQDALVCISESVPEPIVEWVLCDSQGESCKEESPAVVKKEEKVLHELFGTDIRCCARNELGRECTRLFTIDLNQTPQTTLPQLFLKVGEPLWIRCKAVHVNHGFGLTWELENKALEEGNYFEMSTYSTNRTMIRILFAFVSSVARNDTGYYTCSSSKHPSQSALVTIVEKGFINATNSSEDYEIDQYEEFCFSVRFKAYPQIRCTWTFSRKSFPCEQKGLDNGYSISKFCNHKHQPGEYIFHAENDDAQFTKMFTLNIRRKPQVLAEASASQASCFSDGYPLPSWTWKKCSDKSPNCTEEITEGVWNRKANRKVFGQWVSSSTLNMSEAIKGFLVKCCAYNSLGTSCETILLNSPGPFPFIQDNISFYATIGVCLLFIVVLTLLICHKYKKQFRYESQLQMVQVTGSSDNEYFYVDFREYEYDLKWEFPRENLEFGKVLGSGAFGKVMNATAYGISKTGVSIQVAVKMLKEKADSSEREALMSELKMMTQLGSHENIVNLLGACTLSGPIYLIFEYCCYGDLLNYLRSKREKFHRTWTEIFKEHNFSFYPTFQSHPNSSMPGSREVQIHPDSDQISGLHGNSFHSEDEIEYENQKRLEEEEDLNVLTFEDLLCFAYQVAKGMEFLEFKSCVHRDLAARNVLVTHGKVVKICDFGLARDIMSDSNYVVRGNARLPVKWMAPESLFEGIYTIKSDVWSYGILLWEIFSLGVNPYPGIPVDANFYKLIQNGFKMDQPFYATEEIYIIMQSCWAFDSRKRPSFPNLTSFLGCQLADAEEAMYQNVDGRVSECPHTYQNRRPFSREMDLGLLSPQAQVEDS

[5] = target: Tyrosine-protein kinase Lck (Homo sapiens, UniProt P06239)
Sequence of Tyrosine-protein kinase Lck (P06239 whole entry): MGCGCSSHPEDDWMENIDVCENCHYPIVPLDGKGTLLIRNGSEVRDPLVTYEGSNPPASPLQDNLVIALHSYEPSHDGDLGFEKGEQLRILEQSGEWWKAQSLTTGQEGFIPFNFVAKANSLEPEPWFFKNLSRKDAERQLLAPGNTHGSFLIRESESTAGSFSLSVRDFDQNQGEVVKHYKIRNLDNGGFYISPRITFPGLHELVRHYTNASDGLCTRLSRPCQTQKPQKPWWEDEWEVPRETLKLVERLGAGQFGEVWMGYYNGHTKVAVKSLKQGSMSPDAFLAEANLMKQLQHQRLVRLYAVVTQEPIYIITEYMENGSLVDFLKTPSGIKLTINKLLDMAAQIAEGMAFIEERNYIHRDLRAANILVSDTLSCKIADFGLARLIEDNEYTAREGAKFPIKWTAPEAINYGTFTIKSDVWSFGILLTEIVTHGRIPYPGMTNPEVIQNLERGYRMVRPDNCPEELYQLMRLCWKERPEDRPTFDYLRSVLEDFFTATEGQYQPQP

[6] = target: T3, Serine/threonine-protein kinase RIO1 (Homo sapiens) (UniProt Q9BRS2); assay: Selectivity interaction (KinomeScan (DiscoverX)) EUB0000045b RIOK1
T3 sequence (whole entry): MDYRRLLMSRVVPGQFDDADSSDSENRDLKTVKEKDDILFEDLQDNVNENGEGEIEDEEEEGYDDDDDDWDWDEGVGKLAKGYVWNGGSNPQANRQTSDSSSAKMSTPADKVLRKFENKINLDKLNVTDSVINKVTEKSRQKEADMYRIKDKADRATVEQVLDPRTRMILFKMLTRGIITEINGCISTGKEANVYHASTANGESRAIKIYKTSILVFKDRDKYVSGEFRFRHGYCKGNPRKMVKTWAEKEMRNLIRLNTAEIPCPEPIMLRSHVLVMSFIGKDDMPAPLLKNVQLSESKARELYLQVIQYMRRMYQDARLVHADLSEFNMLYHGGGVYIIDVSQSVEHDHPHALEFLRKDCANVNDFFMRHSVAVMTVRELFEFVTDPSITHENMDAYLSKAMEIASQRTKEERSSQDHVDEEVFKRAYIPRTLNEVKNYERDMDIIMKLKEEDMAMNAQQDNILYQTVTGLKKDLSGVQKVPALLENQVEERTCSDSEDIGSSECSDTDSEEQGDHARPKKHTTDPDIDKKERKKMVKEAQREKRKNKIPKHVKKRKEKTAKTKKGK

[7] = target: Nuclear body protein SP140 (Homo sapiens) (UniProt Q13342); assay: Selectivity interaction (Bromodomain panel (DSF asssay)) EUB0000270b SP140
Sequence of Nuclear body protein SP140 (Homo sapiens) (Q13342 whole entry): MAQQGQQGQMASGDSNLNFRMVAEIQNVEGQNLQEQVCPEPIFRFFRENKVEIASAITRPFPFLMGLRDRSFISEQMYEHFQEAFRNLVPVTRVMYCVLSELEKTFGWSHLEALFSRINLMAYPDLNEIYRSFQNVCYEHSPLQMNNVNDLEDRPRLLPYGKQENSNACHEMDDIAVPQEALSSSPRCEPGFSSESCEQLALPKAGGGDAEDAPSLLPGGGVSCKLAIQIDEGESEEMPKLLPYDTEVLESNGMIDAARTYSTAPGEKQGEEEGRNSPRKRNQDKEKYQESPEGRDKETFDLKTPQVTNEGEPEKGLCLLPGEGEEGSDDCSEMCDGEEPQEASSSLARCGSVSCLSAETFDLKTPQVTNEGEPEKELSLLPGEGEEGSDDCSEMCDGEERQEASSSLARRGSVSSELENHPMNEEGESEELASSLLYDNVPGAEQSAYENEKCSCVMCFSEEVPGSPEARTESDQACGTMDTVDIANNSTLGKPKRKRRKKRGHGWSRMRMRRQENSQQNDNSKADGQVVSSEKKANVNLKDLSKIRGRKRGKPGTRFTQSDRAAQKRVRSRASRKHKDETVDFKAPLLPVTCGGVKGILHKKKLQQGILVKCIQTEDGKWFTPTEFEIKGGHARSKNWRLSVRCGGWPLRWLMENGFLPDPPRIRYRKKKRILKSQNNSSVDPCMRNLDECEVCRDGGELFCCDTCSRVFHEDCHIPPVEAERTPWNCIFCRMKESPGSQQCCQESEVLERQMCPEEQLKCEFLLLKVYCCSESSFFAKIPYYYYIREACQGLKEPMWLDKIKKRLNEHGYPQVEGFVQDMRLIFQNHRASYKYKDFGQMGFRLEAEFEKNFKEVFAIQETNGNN

[8] = target: Serine/threonine-protein kinase VRK2 (Homo sapiens) (UniProt Q86Y07); details: at 10 µM
Sequence of Serine/threonine-protein kinase VRK2 (Homo sapiens) (Q86Y07 whole entry): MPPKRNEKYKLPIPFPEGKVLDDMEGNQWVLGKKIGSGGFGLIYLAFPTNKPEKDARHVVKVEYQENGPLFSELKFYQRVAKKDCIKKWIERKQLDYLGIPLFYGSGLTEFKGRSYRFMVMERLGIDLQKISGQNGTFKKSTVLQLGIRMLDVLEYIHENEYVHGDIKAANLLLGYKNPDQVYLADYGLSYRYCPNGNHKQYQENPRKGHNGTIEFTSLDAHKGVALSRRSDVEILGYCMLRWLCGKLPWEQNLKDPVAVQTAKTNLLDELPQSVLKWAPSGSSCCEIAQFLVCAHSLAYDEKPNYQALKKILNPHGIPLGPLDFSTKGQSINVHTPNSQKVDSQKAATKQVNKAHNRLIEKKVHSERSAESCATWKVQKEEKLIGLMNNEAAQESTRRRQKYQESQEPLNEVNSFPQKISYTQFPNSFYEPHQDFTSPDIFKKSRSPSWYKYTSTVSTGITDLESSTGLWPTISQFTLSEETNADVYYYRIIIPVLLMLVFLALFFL

[9] = test system: Mast/stem cell growth factor receptor Kit (Homo sapiens), P10721 [D816V]; details: at 10 µM
Sequence of Mast/stem cell growth factor receptor Kit (Homo sapiens), P10721 [D816V] (P10721 whole entry D816V): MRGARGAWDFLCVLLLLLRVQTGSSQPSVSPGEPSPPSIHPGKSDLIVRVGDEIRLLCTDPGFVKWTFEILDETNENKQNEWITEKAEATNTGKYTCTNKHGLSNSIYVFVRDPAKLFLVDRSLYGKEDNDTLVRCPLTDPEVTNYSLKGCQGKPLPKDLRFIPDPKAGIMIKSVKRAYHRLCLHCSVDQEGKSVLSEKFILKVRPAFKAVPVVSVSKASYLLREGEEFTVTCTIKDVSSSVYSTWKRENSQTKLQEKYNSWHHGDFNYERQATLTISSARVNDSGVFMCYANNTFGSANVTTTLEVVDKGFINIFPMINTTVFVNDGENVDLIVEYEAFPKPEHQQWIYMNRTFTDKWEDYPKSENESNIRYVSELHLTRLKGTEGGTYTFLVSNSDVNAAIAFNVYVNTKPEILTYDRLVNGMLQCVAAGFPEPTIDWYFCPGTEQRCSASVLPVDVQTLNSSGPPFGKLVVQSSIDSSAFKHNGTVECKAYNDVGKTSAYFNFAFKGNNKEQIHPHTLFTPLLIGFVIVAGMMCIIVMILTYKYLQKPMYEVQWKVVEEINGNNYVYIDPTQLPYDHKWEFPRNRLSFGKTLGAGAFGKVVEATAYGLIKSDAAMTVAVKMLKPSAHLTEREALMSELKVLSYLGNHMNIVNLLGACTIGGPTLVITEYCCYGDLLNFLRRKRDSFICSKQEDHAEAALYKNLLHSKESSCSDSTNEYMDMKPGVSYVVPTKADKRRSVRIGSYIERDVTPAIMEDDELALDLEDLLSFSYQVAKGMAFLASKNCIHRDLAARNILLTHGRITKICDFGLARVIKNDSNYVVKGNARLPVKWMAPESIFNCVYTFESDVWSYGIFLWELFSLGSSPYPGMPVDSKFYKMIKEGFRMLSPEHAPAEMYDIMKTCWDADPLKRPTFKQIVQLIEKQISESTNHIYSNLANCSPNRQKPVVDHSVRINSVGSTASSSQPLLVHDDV

Compound: CNC(=O)Nc1ccc(-c2nc(N3CC4CCC(C3)O4)c3cnn(C4CCC5(CC4)OCCO5)c3n2)cc1
% of control [1]: 76%

% of inhibition [2]: 16.9%
Compound: CC[C@@H]1[C@H](F)C(=O)N[C@@H]1COc1nccc2cc(C(N)=O)c(OC)cc12 [ZIMLOVISERTIB]

Compound: Cc1cc(F)c(C(=O)Nc2cccc(-c3nncn3C(C)C)n2)cc1-n1cnc(C2CC2)c1
% of control [3]: 93%

Compound: CN(C)C/C=C/C(=O)Nc1ccc(C(=O)N2CCCC(Nc3ncc(Cl)c(-c4c[nH]c5ccccc45)n3)C2)cc1 (stereo not given)
% of control [4]: 95%

IC50 [5]: > 10 µM
Compound: CCc1cccc(CC)c1NC(=O)c1nn(C)c2c1CCc1cnc(Nc3ccc(C(=O)NC4CCN(C)CC4)cc3OC(F)(F)F)nc1-2

Compound: C=CC(=O)Nc1cc(-n2c(=O)ccc3cnc4ccc(-c5ccc(NS(C)(=O)=O)cc5)cc4c32)ccc1C
% of control ([6]; at 1 µM): 20%
% of control ([6]; at 10 µM): 52%

dTM [7]: -1.11 K
Compound: Cc1cc(CN)cc(C)c1-c1ncn(C)c1-c1cncn1C

Compound: Cc1cc([C@@H](C)Nc2ccccc2C(=O)O)c2nc(N3CCOCC3)cc(=O)n2c1 [AZD-6482]
% of control [8]: 100%
% of control [9]: 81%
